These molecules were tested against NS3-NS4 (Hepatitis C virus genotype 1a, UniProt P27958) (assay: NS3-NS4 activity, IC50 (Example 37, Table 8)).
Type: biochemical

Chain of NS3-NS4 (P27958 1027-1657): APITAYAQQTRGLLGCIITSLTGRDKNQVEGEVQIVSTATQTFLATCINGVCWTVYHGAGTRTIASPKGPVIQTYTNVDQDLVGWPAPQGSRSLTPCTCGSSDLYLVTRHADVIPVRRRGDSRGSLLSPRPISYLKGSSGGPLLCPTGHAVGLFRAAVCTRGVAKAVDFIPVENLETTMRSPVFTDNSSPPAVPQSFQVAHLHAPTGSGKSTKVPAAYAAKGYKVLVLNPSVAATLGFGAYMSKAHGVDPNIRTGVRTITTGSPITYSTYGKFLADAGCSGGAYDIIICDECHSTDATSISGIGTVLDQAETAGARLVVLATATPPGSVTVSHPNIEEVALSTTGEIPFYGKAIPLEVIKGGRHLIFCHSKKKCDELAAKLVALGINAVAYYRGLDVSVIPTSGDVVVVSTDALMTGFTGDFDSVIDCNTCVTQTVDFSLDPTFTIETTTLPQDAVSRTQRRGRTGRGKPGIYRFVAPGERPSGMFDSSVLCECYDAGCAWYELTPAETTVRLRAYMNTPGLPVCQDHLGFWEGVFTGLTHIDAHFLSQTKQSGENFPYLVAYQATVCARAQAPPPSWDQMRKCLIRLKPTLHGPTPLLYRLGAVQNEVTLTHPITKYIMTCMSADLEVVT
Chain of NS3-NS4 (P27958 1658-1711): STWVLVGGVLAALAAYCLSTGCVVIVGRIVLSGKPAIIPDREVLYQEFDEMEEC

| SMILES | IC50 [nM] |
| --- | --- |
| Cc1ccccc1CS(=O)(=O)NC(=O)[C@@]12C[C@H]1/C=C\CCCCC[C@H](NC(=O)OC(C)(C)C)C(=O)N1C[C@H](OC(=O)N3Cc4cccc(F)c4C3)C[C@H]1C(=O)N2 [Compound 513] | < 100 |
| COc1cccc(CS(=O)(=O)NC(=O)[C@@]23C[C@H]2/C=C\CCCCC[C@H](NC(=O)OC(C)(C)C)C(=O)N2C[C@H](OC(=O)N4Cc5cccc(F)c5C4)C[C@H]2C(=O)N3)c1 [Compound 516] | < 100 |
| CC(C)(C)OC(=O)N[C@H]1CCCCC/C=C\[C@@H]2C[C@@]2(C(=O)NS(=O)(=O)c2ccc(Cl)nc2)NC(=O)[C@@H]2C[C@@H](OC(=O)N3Cc4cccc(F)c4C3)CN2C1=O [Compound 530] | < 100 |
| CC(C)(C)OC(=O)N[C@H]1CCCCC/C=C\[C@@H]2C[C@@]2(C(=O)NS(=O)(=O)c2ccc(Cl)nc2Cl)NC(=O)[C@@H]2C[C@@H](OC(=O)N3Cc4cccc(F)c4C3)CN2C1=O [Compound 531] | < 100 |
| COc1ccc(S(=O)(=O)NC(=O)[C@@]23C[C@H]2/C=C\CCCCC[C@H](NC(=O)OC(C)(C)C)C(=O)N2C[C@H](OC(=O)N4Cc5cccc(F)c5C4)C[C@H]2C(=O)N3)cn1 [Compound 532] | < 100 |
| CC(C)(C)OC(=O)N[C@H]1CCCCC/C=C\[C@@H]2C[C@@]2(C(=O)NS(=O)(=O)c2ccc(Cl)s2)NC(=O)[C@@H]2C[C@@H](OC(=O)N3Cc4cccc(F)c4C3)CN2C1=O [Compound 535] | < 100 |
| Cc1cc(S(=O)(=O)NC(=O)[C@@]23C[C@H]2/C=C\CCCCC[C@H](NC(=O)OC(C)(C)C)C(=O)N2C[C@H](OC(=O)N4Cc5cccc(F)c5C4)C[C@H]2C(=O)N3)sc1C [Compound 540] | < 100 |
| CC(C)(C)OC(=O)N[C@H]1CCCCCCC[C@@H]2C[C@@]2(C(=O)NS(=O)(=O)Cc2ccc(Cl)cc2)NC(=O)[C@@H]2C[C@@H](OC(=O)N3Cc4cccc(F)c4C3)CN2C1=O [Compound 612] | < 100 |
| CC(C)(C)OC(=O)N[C@H]1CCCCCCC[C@@H]2C[C@@]2(C(=O)NS(=O)(=O)Cc2cccc(C(F)(F)F)c2)NC(=O)[C@@H]2C[C@@H](OC(=O)N3Cc4cccc(F)c4C3)CN2C1=O [Compound 618] | < 100 |
| CC(C)(C)OC(=O)N[C@H]1CCCCCCC[C@@H]2C[C@@]2(C(=O)NS(=O)(=O)Cc2ccc(C(F)(F)F)cc2)NC(=O)[C@@H]2C[C@@H](OC(=O)N3Cc4cccc(F)c4C3)CN2C1=O [Compound 619] | < 100 |
| CC(C)(C)OC(=O)N[C@H]1CCCCCCC[C@@H]2C[C@@]2(C(=O)NS(=O)(=O)Cc2ccc(F)c(F)c2)NC(=O)[C@@H]2C[C@@H](OC(=O)N3Cc4cccc(F)c4C3)CN2C1=O [Compound 622] | < 100 |
| CC(C)(C)OC(=O)N[C@H]1CCCCCCC[C@@H]2C[C@@]2(C(=O)NS(=O)(=O)Cc2cc(F)cc(F)c2)NC(=O)[C@@H]2C[C@@H](OC(=O)N3Cc4cccc(F)c4C3)CN2C1=O [Compound 623] | < 100 |
| CC(C)(C)OC(=O)N[C@H]1CCCCCCC[C@@H]2C[C@@]2(C(=O)NS(=O)(=O)Cc2ccc(Cl)c(Cl)c2)NC(=O)[C@@H]2C[C@@H](OC(=O)N3Cc4cccc(F)c4C3)CN2C1=O [Compound 627] | < 100 |
| CC(C)(C)OC(=O)N[C@H]1CCCCCCC[C@@H]2C[C@@]2(C(=O)NS(=O)(=O)Cc2ccc(C(F)(F)F)cc2C(F)(F)F)NC(=O)[C@@H]2C[C@@H](OC(=O)N3Cc4cccc(F)c4C3)CN2C1=O [Compound 633] | < 100 |
| CC(C)(C)OC(=O)N[C@H]1CCCCCCC[C@@H]2C[C@@]2(C(=O)NS(=O)(=O)Cc2cc(C(F)(F)F)cc(C(F)(F)F)c2)NC(=O)[C@@H]2C[C@@H](OC(=O)N3Cc4cccc(F)c4C3)CN2C1=O [Compound 634] | < 100 |
| CC(C)(C)OC(=O)N[C@H]1CCCCCCC[C@@H]2C[C@@]2(C(=O)NS(=O)(=O)c2cccnc2Cl)NC(=O)[C@@H]2C[C@@H](OC(=O)N3Cc4cccc(F)c4C3)CN2C1=O [Compound 635] | < 100 |
| CC(C)(C)OC(=O)N[C@H]1CCCCCCC[C@@H]2C[C@@]2(C(=O)NS(=O)(=O)c2ccc(Cl)nc2)NC(=O)[C@@H]2C[C@@H](OC(=O)N3Cc4cccc(F)c4C3)CN2C1=O [Compound 636] | < 100 |
| Cc1cc(S(=O)(=O)NC(=O)[C@@]23C[C@H]2CCCCCCC[C@H](NC(=O)OC(C)(C)C)C(=O)N2C[C@H](OC(=O)N4Cc5cccc(F)c5C4)C[C@H]2C(=O)N3)oc1C [Compound 640] | < 100 |
| CC(C)(C)OC(=O)N[C@H]1CCCCCCC[C@@H]2C[C@@]2(C(=O)NS(=O)(=O)c2ccc(Cl)s2)NC(=O)[C@@H]2C[C@@H](OC(=O)N3Cc4cccc(F)c4C3)CN2C1=O [Compound 641] | < 100 |
| CC(C)(C)OC(=O)N[C@H]1CCCCCCC[C@@H]2C[C@@]2(C(=O)NS(=O)(=O)c2cc(Cl)cs2)NC(=O)[C@@H]2C[C@@H](OC(=O)N3Cc4cccc(F)c4C3)CN2C1=O [Compound 642] | < 100 |
| CC(C)(C)OC(=O)N[C@H]1CCCCCCC[C@@H]2C[C@@]2(C(=O)NS(=O)(=O)c2cc(Cl)c(Cl)s2)NC(=O)[C@@H]2C[C@@H](OC(=O)N3Cc4cccc(F)c4C3)CN2C1=O [Compound 643] | < 100 |
| Cc1ccc(S(=O)(=O)NC(=O)[C@@]23C[C@H]2CCCCCCC[C@H](NC(=O)OC(C)(C)C)C(=O)N2C[C@H](OC(=O)N4Cc5cccc(F)c5C4)C[C@H]2C(=O)N3)s1 [Compound 644] | < 100 |
| Cc1cc(S(=O)(=O)NC(=O)[C@@]23C[C@H]2CCCCCCC[C@H](NC(=O)OC(C)(C)C)C(=O)N2C[C@H](OC(=O)N4Cc5cccc(F)c5C4)C[C@H]2C(=O)N3)sc1C [Compound 646] | < 100 |
| COc1csc(S(=O)(=O)NC(=O)[C@@]23C[C@H]2CCCCCCC[C@H](NOC(=O)C(C)(C)C)C(=O)N2C[C@H](OC(=O)N4Cc5cccc(F)c5C4)C[C@H]2C(=O)N3)c1 [Compound 647] | < 100 |
| Cc1ccccc1ONC(=O)[C@@]12C[C@H]1/C=C\CCCCC[C@H](NC(=O)OC(C)(C)C)C(=O)N1C[C@H](OC(=O)N3Cc4cccc(F)c4C3)C[C@H]1C(=O)N2 [Compound 701] | < 100 |
| CC(C)(C)OC(=O)N[C@H]1CCCCC/C=C\[C@@H]2C[C@@]2(C(=O)NOc2ccc(F)cc2)NC(=O)[C@@H]2C[C@@H](OC(=O)N3Cc4cccc(F)c4C3)CN2C1=O [Compound 705] | < 100 |
| CC(C)(C)OC(=O)N[C@H]1CCCCC/C=C\[C@@H]2C[C@@]2(C(=O)NOc2cccc(Cl)c2)NC(=O)[C@@H]2C[C@@H](OC(=O)N3Cc4cccc(F)c4C3)CN2C1=O [Compound 706] | < 100 |
| CC(C)(C)ONC(=O)[C@@]12C[C@H]1/C=C\CCCCC[C@H](NC(=O)OC(C)(C)C)C(=O)N1C[C@H](OC(=O)N3Cc4cccc(F)c4C3)C[C@H]1C(=O)N2 [Compound 716] | < 100 |

Further lines, results first:

| IC50 [nM] | SMILES |
| --- | --- |
| < 100 | CC(C)(C)OC(=O)N[C@H]1CCCCCCC[C@@H]2C[C@@]2(C(=O)NS(=O)(=O)Cc2ccccc2F)NC(=O)[C@@H]2C[C@@H](OC(=O)N3Cc4cccc(F)c4C3)CN2C1=O [Compound 607] |
| < 100 | CC(C)(C)OC(=O)N[C@H]1CCCCCCC[C@@H]2C[C@@]2(C(=O)NS(=O)(=O)Cc2cccc(F)c2)NC(=O)[C@@H]2C[C@@H](OC(=O)N3Cc4cccc(F)c4C3)CN2C1=O [Compound 608] |
| < 100 | CC(C)(C)OC(=O)N[C@H]1CCCCCCC[C@@H]2C[C@@]2(C(=O)NS(=O)(=O)Cc2ccc(F)cc2)NC(=O)[C@@H]2C[C@@H](OC(=O)N3Cc4cccc(F)c4C3)CN2C1=O [Compound 609] |
| < 100 | CC(C)(C)OC(=O)N[C@H]1CCCCCCC[C@@H]2C[C@@]2(C(=O)NS(=O)(=O)Cc2cccc(Cl)c2)NC(=O)[C@@H]2C[C@@H](OC(=O)N3Cc4cccc(F)c4C3)CN2C1=O [Compound 611] |
| < 100 | Cc1cccc(CS(=O)(=O)NC(=O)[C@@]23C[C@H]2CCCCCCC[C@H](NC(=O)OC(C)(C)C)C(=O)N2C[C@H](OC(=O)N4Cc5cccc(F)c5C4)C[C@H]2C(=O)N3)c1 [Compound 614] |
| < 100 | Cc1ccc(CS(=O)(=O)NC(=O)[C@@]23C[C@H]2CCCCCCC[C@H](NC(=O)OC(C)(C)C)C(=O)N2C[C@H](OC(=O)N4Cc5cccc(F)c5C4)C[C@H]2C(=O)N3)cc1 [Compound 615] |
| < 100 | COc1cccc(CS(=O)(=O)NC(=O)[C@@]23C[C@H]2CCCCCCC[C@H](NC(=O)OC(C)(C)C)C(=O)N2C[C@H](OC(=O)N4Cc5cccc(F)c5C4)C[C@H]2C(=O)N3)c1 [Compound 616] |
| < 100 | CC(C)(C)OC(=O)N[C@H]1CCCCCCC[C@@H]2C[C@@]2(C(=O)NS(=O)(=O)Cc2ccccc2C(F)(F)F)NC(=O)[C@@H]2C[C@@H](OC(=O)N3Cc4cccc(F)c4C3)CN2C1=O [Compound 617] |
| < 100 | CC(C)(C)OC(=O)N[C@H]1CCCCCCC[C@@H]2C[C@@]2(C(=O)NS(=O)(=O)Cc2cc(F)ccc2F)NC(=O)[C@@H]2C[C@@H](OC(=O)N3Cc4cccc(F)c4C3)CN2C1=O [Compound 620] |
| < 100 | CC(C)(C)OC(=O)N[C@H]1CCCCCCC[C@@H]2C[C@@]2(C(=O)NS(=O)(=O)Cc2c(F)cccc2F)NC(=O)[C@@H]2C[C@@H](OC(=O)N3Cc4cccc(F)c4C3)CN2C1=O [Compound 621] |
| < 100 | CC(C)(C)OC(=O)N[C@H]1CCCCCCC[C@@H]2C[C@@]2(C(=O)NS(=O)(=O)Cc2ccc(Cl)cc2Cl)NC(=O)[C@@H]2C[C@@H](OC(=O)N3Cc4cccc(F)c4C3)CN2C1=O [Compound 624] |
| < 100 | CC(C)(C)OC(=O)N[C@H]1CCCCCCC[C@@H]2C[C@@]2(C(=O)NS(=O)(=O)Cc2cc(Cl)ccc2Cl)NC(=O)[C@@H]2C[C@@H](OC(=O)N3Cc4cccc(F)c4C3)CN2C1=O [Compound 625] |
| < 100 | CC(C)(C)OC(=O)N[C@H]1CCCCCCC[C@@H]2C[C@@]2(C(=O)NS(=O)(=O)Cc2c(Cl)cccc2Cl)NC(=O)[C@@H]2C[C@@H](OC(=O)N3Cc4cccc(F)c4C3)CN2C1=O [Compound 626] |
| < 100 | Cc1ccc(CS(=O)(=O)NC(=O)[C@@]23C[C@H]2CCCCCCC[C@H](NC(=O)OC(C)(C)C)C(=O)N2C[C@H](OC(=O)N4Cc5cccc(F)c5C4)C[C@H]2C(=O)N3)c(C)c1 [Compound 628] |
| < 100 | Cc1ccc(CS(=O)(=O)NC(=O)[C@@]23C[C@H]2CCCCCCC[C@H](NC(=O)OC(C)(C)C)C(=O)N2C[C@H](OC(=O)N4Cc5cccc(F)c5C4)C[C@H]2C(=O)N3)cc1C [Compound 630] |
| < 100 | COc1cccc(CS(=O)(=O)NC(=O)[C@@]23C[C@H]2CCCCCCC[C@H](NC(=O)OC(C)(C)C)C(=O)N2C[C@H](OC(=O)N4Cc5cccc(F)c5C4)C[C@H]2C(=O)N3)c1OC [Compound 631] |
